Measurements from patent publication US12570612B2, “Substituted nitrogen heterocyclic compound and anesthetic effect thereof” (priority 2019, dated 2026).
Entries after “also recorded” stand apart in the source; their conditions may differ. Where two headings read alike, the source gives them in different places.

Legend:
SD rats [1] = test system: SD rats
Summary of the method: (§1)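 Adult male SD rats (250–350 g) received continuous infusion. Read-outs: time from infusion start to […]; after 1 h infusion, time from stop to return of forepaw turning reflex and to full recovery.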

H295R cell line [2] = experiment: Adrenocortical function in vitro test: secretion of cortisol and corticosterone, Group B compounds; format: cell-based; settings: H295R cells; for EC50: Homo sapiens, NCI-H295R, 0.1-10000 nM, HPLC-MS/MS
Sprague-Dawley rats [3] = experiment: animal or person
Experimental: (§2) Adult male Sprague-Dawley rats (250-300 g) were selected for the experiment. […] The anesthesia effects of the compounds were assessed in rats using a LORR assay and a period >30 s was considered as an indicator of general anesthesia.

Sprague-Dawley rats [4] = experiment: animal or person; remark: listed apart in the source
Experimental: as §2

Sprague-Dawley rats [5] = experiment: Continuous infusion at 2 times the MIR for 1 hour, Group B compounds; format: in vivo
Sprague-Dawley rats [6] = experiment: animal or person; format: in vivo; settings: Rattus norvegicus; LORR, up and down method, tail vein, rats; brackets = 95% confidence limit; read-out: ED50
Description: (§3) Evaluating indicator: The end point of anesthesia: LORR was used as the end point of anesthesia; General anesthesia effect: the disappearance of forepaw righting reflex in rats lasting for 30 seconds is taken as the index of general anesthesia effect; Anesthesia recovery index: the recovery of rat forepaw righting reflex was used as the index of anesthesia recovery.

[7] = test system: circulatory function of rats; experiment: Circulatory function of rats (MAP, HR) by implanted telemetry, Group C compounds; settings: 2ED50, rats, FIG. 13-16
Description: (§5) First, the animal model was established, and the left ventricular catheter, abdominal aorta catheter and electrocardiogram wire were placed. At least one week after the operation, the signal can be collected to start the test. At the beginning of the experiment, after the placement of the indwelling needle in the tail vein of rats, connect the extension tube, put the rats together with the feeding cage on the signal receiver and start collecting data. […] All compounds or drugs were given at a constant volume of 0.6 ml at a uniform rate of 0.1 ml/s.

H295R cell line [8] = experiment: Adrenocortical function in vitro test: secretion of cortisol and corticosterone, Group A compounds; format: cell-based; settings: H295 cells; for EC50: Homo sapiens, 0.1-10000 nM, HPLC-MS/MS
Sprague-Dawley rats [9] = experiment: animal or person; format: in vivo; settings: Rattus norvegicus; LORR, up and down method, tail vein, rats; brackets = 95% confidence limit; read-out: ED50; remark: listed apart in the source
Description: as §3, with “the disappearance of forepaw righting reflex (lorr)” for “LORR”

Sprague-Dawley rats [10] = format: in vivo; settings: tail vein
Sprague-Dawley rats [11] = experiment: Pharmacological effect and adverse reactions under the equivalent dose (2ED50), Group D compounds; format: in vivo
Description: (§4) Evaluation index: onset time: from the completion of drug injection to the disappearance of forepaw righting reflex in rats; Duration of anesthesia: the time from the disappearance of rat forepaw righting reflex to the recovery of rat forepaw righting reflex; Recovery time of anesthesia: the time from the […] to complete recovery;

[12] = test system: circulatory function of rats; experiment: Circulatory function of rats (MAP, HR) by implanted telemetry, Group D compounds; settings: 2ED50, rats, FIG. 19-22
Description: as §5
Evaluation indexes: Collect the blood pressure, heart rate and other data of rats during and 15 minutes after administration, and judge the effect of the compound of the invention on the circulatory function of rats with the indexes of mean arterial pressure (MAP) and heart rate (HR).

Sprague-Dawley rats [13] = format: in vivo; settings: tail vein; remark: listed apart in the source
Sprague-Dawley rats [14] = test system: Sprague-Dawley rats
Experimental: Adult male Sprague-Dawley rats with body weight ranging from 250 to 300 gm were selected for continuous infusion test. […] Time to recovery of righting reflex from stopping infusion, and time to fully awake from stopping infusion were recorded.

[15] = test system: circulatory function of rats; settings: rat, in vivo
Experimental: First, animal models were established. […] At least one week after surgery, data were recorded.
Finally, the pharmacological effects, adverse reactions, and behavioral manifestations of the rats were observed and recorded
After data acquisition, the test was stopped.

adrenal cortex function [16] = settings: rat, in vivo
adrenal cortex function [17] = settings: rat, in vivo; remark: listed apart in the source
Sprague-Dawley rats [18] = experiment: Pharmacological effect and adverse reactions under the equivalent dose (2ED50), Group C compounds; format: in vivo
Description: as §4

11β-Hydroxylase = target: T1, 11β-Hydroxylase (Homo sapiens, UniProt P15538); settings: cited from earlier work
T1 sequence (P15538 25-503): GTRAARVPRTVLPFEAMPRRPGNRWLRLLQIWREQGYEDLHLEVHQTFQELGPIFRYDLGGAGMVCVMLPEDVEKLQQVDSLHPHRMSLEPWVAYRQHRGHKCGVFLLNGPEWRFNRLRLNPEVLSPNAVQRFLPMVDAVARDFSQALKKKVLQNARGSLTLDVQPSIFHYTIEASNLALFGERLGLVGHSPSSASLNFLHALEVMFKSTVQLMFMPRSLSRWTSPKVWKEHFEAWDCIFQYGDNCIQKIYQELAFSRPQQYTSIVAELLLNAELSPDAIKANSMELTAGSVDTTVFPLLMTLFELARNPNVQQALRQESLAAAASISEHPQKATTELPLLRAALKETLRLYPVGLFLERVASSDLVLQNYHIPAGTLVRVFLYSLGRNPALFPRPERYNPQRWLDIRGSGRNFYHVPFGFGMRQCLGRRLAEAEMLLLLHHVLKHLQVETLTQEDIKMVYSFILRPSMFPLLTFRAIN

[19] = test system: circulatory function of rats; settings: rat, in vivo; remark: listed apart in the source
SD rats [20] = test system: SD rats; remark: listed apart in the source
Summary of the method: as §1

[21] = after 1 hour continuous infusion at 2 times the MIR, SD rats
[22] = continuous infusion 2 x MIR 1 hour, rats affected/rats
[23] = continuous tail vein infusion at 2 times the MIR, SD rats
[24] = read-out: EC50 (Corticosterone)
[25] = 2ED50, tail vein, rats, n=8, unit s
[26] = equivalent dose (2 × ED50), number of rats of n = 8
[27] = equivalent dose (2ED50), number of rats of n = 8

## CCOC(=O)c1cncn1C(C)c1ccccc1 (stereo not drawn) [Etomidate, reference compound]
SD rats [1]; [21]
  After the infusion is stopped: Righting reflex recovery time: 15 to 20 min
  Recovery time after stopping infusion: 30 to 40 min
SD rats [1]; [22]
  Types and incidence of adverse reactions: Hindlimb rigidity: Hindlimb rigidity(2/6)
  Types and incidence of adverse reactions: Myoclonus: 4/6
  Types and incidence of adverse reactions: Tongue stretching: Tongue stretching(2/6),
  Types and incidence of adverse reactions: Tremor: 6/6
SD rats [1]; [23]
  Sedation onset time: <5 min
H295R cell line [2]
  Corticosterone as an indicator to determine the presence of inhibition: 2
  Cortisol as an indicator to determine the presence of inhibition: 2
H295R cell line [2]; [24]
  EC50: > 10 nM
H295R cell line [2]; read-out: EC50 (Cortisol)
  EC50: > 1 nM
Sprague-Dawley rats [3]; Rattus norvegicus
  ED50: 0.75 mg/kg
Sprague-Dawley rats [3]; rats
  Minimal lethal dose: 12.75 mg/kg
Sprague-Dawley rats [4]; Rattus norvegicus, LORR in rats, tail vein, brackets = 95% confidence limit
  ED50: 0.75 mg/kg
Sprague-Dawley rats [4]; rats
  Minimal lethal dose: 12.75 mg/kg
Sprague-Dawley rats [5]; after 1 hour continuous infusion at 2 times the MIR, rats
  Recovery time after stopping infusion: 25 to 30 min
Sprague-Dawley rats [5]; [22]
  Types and incidence of adverse reactions: Facial muscle twitching: 4/6
  Types and incidence of adverse reactions: Tongue stretching: Tongue stretching (5/6)
  Types and incidence of adverse reactions: Tremor: Tremor (6/6), Facial
Sprague-Dawley rats [5]; continuous tail vein infusion at 2 times the MIR, emulsion, rats
  Onset time: 4 to 5 min
Sprague-Dawley rats [6]
  ED50: 0.74 mg/kg
[7]
  effect on the circulatory function (MAP, HR): slight inhibitory effect on the circulatory function after administration, but soon rises to near the baseline
H295R cell line [8]
  Corticosterone as an indicator to determine the presence of inhibition: 2
  Cortisol as an indicator to determine the presence of inhibition: 2
H295R cell line [8]; [24]
  EC50: > 10 nM
H295R cell line [8]; read-out: EC50 (Cortisol)
  EC50: > 1 nM
Sprague-Dawley rats [9]
  ED50: 0.74 mg/kg
Sprague-Dawley rats [10]
  Minimal lethal dose: 13.8 mg/kg
Sprague-Dawley rats [11]; [25]
  Onset time: <30 s
Sprague-Dawley rats [11]; [26]
  Adverse reaction: Convulsions: 0
  Adverse reaction: Cough, broken-winded: 0
  Adverse reaction: Euphoria: 0
  Adverse reaction: Four limbs rigidity: 2
  Adverse reaction: Slower breathing, Tetany convulsion: 0
  Adverse reaction: Systemic stiffness, Convulsions, Opisthotonus: 0
  Adverse reaction: Tongue stretching: 4
  Adverse reaction: Tremor: 3
[12]
  effect on the circulatory function (MAP, HR): slight inhibitory effect on the circulatory function after administration, but soon rises to near the baseline
Sprague-Dawley rats [13]
  Minimal lethal dose: 13.8 mg/kg
Sprague-Dawley rats [14]; LORR maintained for 1 hour, 2 times the MIR
  Recovery time after stopping infusion: 25 to 30 min
Sprague-Dawley rats [14]; continuous infusion, 2 times the MIR
  Onset time: 4 to 5 min
Sprague-Dawley rats [14]; continuous infusion, (animals affected/animals)
  Types and incidence of adverse reactions: Tonguestretching(5/6); also recorded: Tremor(6/6), Facial; also recorded: muscle twitching (4/6)
[15]
  inhibitory effect on the circulatory function (MAP, HR): almost no inhibitory effect on the circulatory function
Adrenal cortex function [16]
  effect on the synthesis of adrenal cortex hormone (serum corticosterone): obvious inhibitory effect on adrenal cortex function
Adrenal cortex function [17]
  effect on the synthesis of adrenal cortex hormone (serum corticosterone): obvious inhibitory effect on adrenal cortex function
Sprague-Dawley rats [18]; [25]
  Onset time: <30 s
Sprague-Dawley rats [18]; [27]
  Adverse reaction: Convulsions: 0
  Adverse reaction: Cough, broken-winded: 0
  Adverse reaction: Euphoria: 0
  Adverse reaction: Slower breathing, Tetany convulsion: 0
  Adverse reaction: Systemic stiffness, Convulsions, Opisthotonus: 0
  Adverse reaction: Tongue stretching: 4
  Adverse reaction: Tremor: 6
  Adverse reaction: the four limbs rigidity: 0
11β-Hydroxylase
  inhibition of 11β-Hydroxylase: can inhibit the key enzymes in the synthesis pathway of adrenocortical hormone
[19]
  inhibitory effect on the circulatory function (MAP, HR): almost no inhibitory effect on the circulatory function
SD rats [20]; [21]
  After the infusion is stopped: Righting reflex recovery time: 15 to 20 min
  Recovery time after stopping infusion: 30 to 40 min
SD rats [20]; [22]
  Types and incidence of adverse reactions: Hindlimb rigidity: Hindlimb rigidity(2/6)
  Types and incidence of adverse reactions: Myoclonus: 4/6
  Types and incidence of adverse reactions: Tongue stretching: Tongue stretching(2/6),
  Types and incidence of adverse reactions: Tremor: 6/6
SD rats [20]; [23]
  Sedation onset time: <5 min
